Experimental data: patent US12472177B2, “Bicyclic compounds and methods for their use in treating Pitt Hopkins syndrome” (NEUREN PHARMACEUTICALS LIMITED, priority 2019, dated 2025)

Assays:
Tcf4^+/− mice [1] = assay: Tcf4^+/− mouse model of Pitt Hopkins Syndrome, all tested behaviors (summary); format: in vivo
Procedure: Several genetically manipulated rodent models of PTHS have been created (Thaxton et al, 2018; Sweatt, 2013). These models share a common basis around heterozygous Tcf4 (Tcf4^+/−). Haploinsufficient mice (Tcf4^+/−) have been characterized as a model system for PTHS (Kennedy et al, 2016).
(§1) In vivo behavioral studies were conducted in Tcf4^+/− mutant and wildtype littermate control (WT) mice by Gen.DDI (Santiago, Chile). Littermate controls consist of the genotypes Tcf4^+/+. All Tcf4 mutant mice used were heterozygous for the Tcf4 mutation because homozygous mutations of Tcf4 result in embryonic to postnatal day 1 lethality. Ten mice per treatment group, 14 weeks of age, were used for behavioral experiments. Experiments were conducted in line with the requirements of the UK Animals (Scientific Procedures) Act, 1986. The mice were housed in plastic cages (35×30×12 cm), 5 in each and habituated to the animal facilities for at least a week before commencing the test. The room temperature (21° C.±2° C.), relative humidity (55%±5%), a 12-hour light-dark cycle (lights on 7 AM to 7 PM), and air exchange were automatically controlled. The animals had free access to commercial food pellets and water. Testing was performed during the light phase of the circadian cycle, with the order of testing being determined by the principle of conducting the most stressful tests last. Assays were designed to reproduce and expand on the original behavioral characterization of Tcf4^+/− mice. Tcf4^+/− and WT control mice were treated for 6 weeks prior to testing and tested 30 minutes following a dose of cG-2-AllylP, as described in Table 2 below.

Tcf4^+/− mice [2] = assay: Open field (hypoactivity, distance travelled); format: in vivo, mouse; parameters: key to Open Field (Hypoactivity): Tukey’s Multiple Comparison Test Summary: **** = p < 0.00001; ns = not significant
Procedure: as §1
The Open Field (OF) test is a combined test that is used to determine anxiety/hyperactivity, and for habituation to a novel environment, one of the most elementary forms of learning, in which decreased exploration as a function of repeated exposure to the same environment is taken as an index of memory. This is normally studied in two sessions of exposure to the open field, a 10-min and a 24 hr habituation session.
The device used for this study is a grey PVC enclosed arena 50×30 cm divided into 10 cm squares. Mice are brought to the experimental room 5-20 min before testing. A mouse is placed into a corner square facing the corner and observed for 3 min. The number of squares entered (whole body) and rears (both front paws off the ground, but not as part of grooming) are counted. The latency to the first rear is also noted. The movement of the mouse around the field was recorded with a video tracking device for 300 s (vNT4.0, Viewpoint). The latency for the mouse to enter the brightest, central part of the field total time spent in this central region, and total activity (in terms of path length in centimetres), were recorded.
The open field (OF) test is a test used to characterize explorative behavior, anxiety, and/or hypo- and hyperactivity in animals habituated to daily handling under novel and familiar conditions. During exposure to the open field mice will habituate to the environment and thus explore less, decreasing the amount movement they show over time.
In the present experiment, we recorded movement and rearing during an initial exposure (T1), during a second exposure after 10 minutes (T2) and during a third exposure after 24 hours (T3). Failures to reduce locomotion or rearing at 10 minutes and 24 hours indicate deficits in short- and long-term memory, respectively.
To evaluate whether cG-2-AllylP is effective to treat the hypoactivity in PTHS, we carried out Open Field studies. Lower scores on measures of open field locomotion were detected in Tcf4^+/− as compared to WT littermates, across the 30-minute test session.
The relative distance travelled is shown on the vertical axis, and the animals and their treatments are shown on the horizontal axis. Wild type (WT) mice treated with vehicle alone (left column) were considered to travel 100%. […] The effect of NNZ-2591 (cG-2-AllylP) were statistically significant.

Tcf4^+/− mice [3] = assay: Self grooming (repetitive behavior); format: in vivo, mouse; parameters: key to Self-Grooming/Repetitive Behavior: Tukey’s Multiple Comparison Test Summary: **** = p < 0.00001; ns = not significant
Procedure: as §1
Repetitive self-grooming is a feature of mice. Tcf4^+/− mice show an increased amount of self-grooming compared to wild type mice. To see if NNZ-2591 (cG-2-AllylP) can normalize self-grooming behavior in Tcf4^+/− mice, we carried out a series of studies, as shown in FIG. 3.
The amount of time spent grooming in seconds during a 10-minute test period is shown on the vertical axis, and the animals and treatments are shown on the horizontal axis. Wild type (WT) mice treated with vehicle alone (left column) self-groomed for about 110 sec. […] This difference was not statistically significant. […] This statistically significant finding was completely unexpected in Tcf4^+/− mice.

[4] = Tcf4^+/− + cG-2-AllylP (100 mg/kg) vs Tcf4^+/− + cG-2-AllylP (200 mg/kg)
[5] = Tcf4^+/− + cG-2-AllylP (100 mg/kg) vs WT + cG-2-AllylP (200 mg/kg)
[6] = Tcf4^+/− + vehicle vs Tcf4^+/− + cG-2-AllylP (200 mg/kg)
[7] = Tcf4^+/− + vehicle vs WT + cG-2-AllylP (100 mg/kg)
[8] = WT + cG-2-AllylP (100 mg/kg) vs Tcf4^+/− + cG-2-AllylP (100 mg/kg)
[9] = WT + cG-2-AllylP (100 mg/kg) vs Tcf4^+/− + cG-2-AllylP (200 mg/kg)
[10] = WT + cG-2-AllylP (100 mg/kg) vs WT + cG-2-AllylP (200 mg/kg)
[11] = WT + cG-2-AllylP (200 mg/kg) vs Tcf4^+/− + cG-2-AllylP (200 mg/kg)
[12] = WT + vehicle vs Tcf4^+/− + cG-2-AllylP (100 mg/kg)
[13] = WT + vehicle vs Tcf4^+/− + cG-2-AllylP (200 mg/kg)
[14] = WT + vehicle vs WT + cG-2-AllylP (100 mg/kg)
[15] = WT + vehicle vs WT + cG-2-AllylP (200 mg/kg)
[16] = WT mice, 100 mg/kg oral BID 6 weeks

SMILES: C=CC[C@]12CCCN1C(=O)CNC2=O [cG-2-AllylP, (8aS)-Allyl-hexahydropyrrolo[1,2-a]pyrazine-1,4-dione]
- Rescue of tested behaviors of the PTHS phenotype (Tcf4^+/− mice [1]; Tcf4^+/− mice, 100 mg/kg for 6 weeks): rescued all tested behaviors, except for fear conditioning
- Rescue of tested behaviors of the PTHS phenotype (Tcf4^+/− mice [1]; Tcf4^+/− mice, 200 mg/kg for 6 weeks): rescued all tested behaviors of the PTHS phenotype
- Rescue of the phenotype of the Tcf4^+/− knockout mouse model (Tcf4^+/− mice [1]; Tcf4^+/− mice, oral administration for 6 weeks): can rescue the phenotype
- Impact on wild type control mice (Tcf4^+/− mice [1]; WT mice, oral administration for 6 weeks): no impact
- Open Field (Hypoactivity): Tukey’s Multiple Comparison Test Summary (Tcf4^+/− mice [2]; [4]): ns
- Open Field (Hypoactivity): Tukey’s Multiple Comparison Test Summary (Tcf4^+/− mice [2]; [5]): ns
- Open Field (Hypoactivity): Tukey’s Multiple Comparison Test Summary (Tcf4^+/− mice [2]; Tcf4^+/− + vehicle vs Tcf4^+/− + cG-2-AllylP 1 (200 mg/kg) [r21-22]): **** (**** = p < 0.00001)
- Open Field (Hypoactivity): Tukey’s Multiple Comparison Test Summary (Tcf4^+/− mice [2]; Tcf4^+/− + vehicle vs Tcf4^+/− + cG-2-AllylP (100 mg/kg) [r23-24]): **** (**** = p < 0.00001)
- Open Field (Hypoactivity): Tukey’s Multiple Comparison Test Summary (Tcf4^+/− mice [2]; [6]): **** (**** = p < 0.00001)
- Open Field (Hypoactivity): Tukey’s Multiple Comparison Test Summary (Tcf4^+/− mice [2]; [7]): **** (**** = p < 0.00001)
- Behavior Normalized to WildType Levels: Open Field (Tcf4^+/− mice [2]; Tcf4^+/− mice, 100 mg/kg): ✓
- Relative distance travelled (mobility), open field (Tcf4^+/− mice [2]; Tcf4^+/− mice, 100 mg/kg oral BID 6 weeks): nearly identical mobility as did WT mice treated with vehicle alone
- Behavior Normalized to WildType Levels: Open Field (Tcf4^+/− mice [2]; Tcf4^+/− mice, 200 mg/kg): ✓
- Relative distance travelled (mobility), open field (Tcf4^+/− mice [2]; Tcf4^+/− mice, 200 mg/kg oral BID 6 weeks): normalized this mild to moderate hypoactivity
- Open Field (Hypoactivity): Tukey’s Multiple Comparison Test Summary (Tcf4^+/− mice [2]; [8]): ns
- Open Field (Hypoactivity): Tukey’s Multiple Comparison Test Summary (Tcf4^+/− mice [2]; [9]): ns
- Open Field (Hypoactivity): Tukey’s Multiple Comparison Test Summary (Tcf4^+/− mice [2]; [10]): ns
- Open Field (Hypoactivity): Tukey’s Multiple Comparison Test Summary (Tcf4^+/− mice [2]; [11]): ns
- Open Field (Hypoactivity): Tukey’s Multiple Comparison Test Summary (Tcf4^+/− mice [2]; [12]): ns
- Open Field (Hypoactivity): Tukey’s Multiple Comparison Test Summary (Tcf4^+/− mice [2]; [13]): ns
- Open Field (Hypoactivity): Tukey’s Multiple Comparison Test Summary (Tcf4^+/− mice [2]; [14]): ns
- Open Field (Hypoactivity): Tukey’s Multiple Comparison Test Summary (Tcf4^+/− mice [2]; [15]): ns
- Relative distance travelled (mobility), open field (Tcf4^+/− mice [2]; [16]): slightly higher mobility than WT mice treated with vehicle
- Relative distance travelled (mobility), open field (Tcf4^+/− mice [2]; WT mice, 200 mg/kg oral BID 6 weeks): nearly the same mobility
- Self-Grooming/Repetitive Behavior: Tukey’s Multiple Comparison Test Summary (Tcf4^+/− mice [3]; [4]): ns
- Self-Grooming/Repetitive Behavior: Tukey’s Multiple Comparison Test Summary (Tcf4^+/− mice [3]; [5]): ns
- Self-Grooming/Repetitive Behavior: Tukey’s Multiple Comparison Test Summary (Tcf4^+/− mice [3]; Tcf4^+/− + vehicle vs Tcf4^+/− + cG-2-AllylP (100 mg/kg)): **** (**** = p < 0.0001)
- Self-Grooming/Repetitive Behavior: Tukey’s Multiple Comparison Test Summary (Tcf4^+/− mice [3]; [6]): **** (**** = p < 0.0001)
- Self-Grooming/Repetitive Behavior: Tukey’s Multiple Comparison Test Summary (Tcf4^+/− mice [3]; [7]): **** (**** = p < 0.0001)
- Self-Grooming/Repetitive Behavior: Tukey’s Multiple Comparison Test Summary (Tcf4^+/− mice [3]; Tcf4^+/− + vehicle vs WT + cG-2-AllylP (200 mg/kg)): **** (**** = p < 0.0001)
- Behavior Normalized to WildType Levels: Self-groom (Tcf4^+/− mice [3]; Tcf4^+/− mice, 100 mg/kg): ✓
- Time spent self-grooming during a 10-minute test period (Tcf4^+/− mice [3]; Tcf4^+/− mice, 100 mg/kg oral BID 6 weeks, 100 mg/kg): corrected
- Time spent self-grooming during a 10-minute test period (Tcf4^+/− mice [3]; Tcf4^+/− mice, 100 mg/kg oral BID 6 weeks, listed as NNZ-2591, 100 mg/kg): about the same amount of time self-grooming as WT vehicle treated mice
- Behavior Normalized to WildType Levels: Self-groom (Tcf4^+/− mice [3]; Tcf4^+/− mice, 200 mg/kg): ✓
- Time spent self-grooming during a 10-minute test period (Tcf4^+/− mice [3]; Tcf4^+/− mice, 200 mg/kg oral BID 6 weeks, 200 mg/kg): corrected
- Time spent self-grooming during a 10-minute test period (Tcf4^+/− mice [3]; Tcf4^+/− mice, 200 mg/kg oral BID 6 weeks, listed as NNZ-2591, 200 mg/kg): about the same amount of time self-grooming as WT vehicle treated mice
- Self-Grooming/Repetitive Behavior: Tukey’s Multiple Comparison Test Summary (Tcf4^+/− mice [3]; [8]): ns
- Self-Grooming/Repetitive Behavior: Tukey’s Multiple Comparison Test Summary (Tcf4^+/− mice [3]; [9]): ns
- Self-Grooming/Repetitive Behavior: Tukey’s Multiple Comparison Test Summary (Tcf4^+/− mice [3]; [10]): ns
- Self-Grooming/Repetitive Behavior: Tukey’s Multiple Comparison Test Summary (Tcf4^+/− mice [3]; [11]): ns
- Self-Grooming/Repetitive Behavior: Tukey’s Multiple Comparison Test Summary (Tcf4^+/− mice [3]; [12]): ns
- Self-Grooming/Repetitive Behavior: Tukey’s Multiple Comparison Test Summary (Tcf4^+/− mice [3]; [13]): ns
- Self-Grooming/Repetitive Behavior: Tukey’s Multiple Comparison Test Summary (Tcf4^+/− mice [3]; [14]): ns
- Self-Grooming/Repetitive Behavior: Tukey’s Multiple Comparison Test Summary (Tcf4^+/− mice [3]; [15]): ns
- Time spent self-grooming during a 10-minute test period (Tcf4^+/− mice [3]; [16]): about the same amount of time as did WT mice treated with vehicle alone
